Test results reported in patent EP3272768A1, “CHIMERIC PEPTIDES USEFUL IN MALARIA PROPHYLAXIS OR TREATMENT” (priority 2016, dated 2018).
Peptide text beside a SMILES is read from it.

Tested on: primary human hepatocytes
Type: cell-based
Procedure: A) Overlapping dodecapeptides with two amino acid shift covering the whole […] PfLRR1 protein were bound to a solid support. The membrane was incubated sequentially with PP1 protein, and anti- PP1 antibody, followed by a peroxidase-labeled secondary antibody. […] PfLRR1.1 and PfLRR1.2 are shown. B) PP1 sequence alignment between human and P. falciparum species (SEQ ID NO:16 and 15). • Figures 2A and 2B show in vitro cell viability assay. Primary hepatocytes were treated with or without various concentrations of […] or […] peptides. Absorbance was recorded 72h after. […] The assay was done using parasitemia of 0.5% and hematocrit of 1%. The peptides were added at various concentrations and incubated for 48h and then, fixed. Samples were analyzed by flow cytometry. Results are expressed as percentage of growth inhibition. • Figures 4A and 4B show in vitro effect of chimeric peptides PfLRR1.1 (peptide 1) and PfLRR1.2 (peptide 2) on the hepatic stage of the P. falciparum. […] The culture was fixed with paraformaldehyde (PFA) and analysed by fluorescence microscopy. • Figures 5A and 5B show in vitro effect of peptides PfLRR1.1 and PfLRR1.2 on the hepatic stage of the P. vivax. […] The culture was fixed with PFA and analysed by fluorescence microscopy.
The cell viability was determined using a colorimetric assay based on 3-(4,5-dimethylthiazol- 2-yl)-2,5 diphenyltetrazolium bromide (MTT). […]

Structure (SMILES) | toxicity for the host cell (primary human hepatocyte)
CC[C@H](C)[C@H](NC(=O)[C@H](CCCCN)NC(=O)[C@H](CCCCN)NC(=O)[C@H](CCCCN)NC(=O)[C@H](CCCCN)NC(=O)[C@@H](N)C(C)C)C(=O)N[C@@H](CCCCN)C(=O)N[C@@H](C)C(=O)N[C@@H](CCC(=O)O)C(=O)N[C@H](C(=O)N[C@@H](CCCCN)C(=O)N[C@H](C(=O)N[C@H](C(=O)N[C@@H](CCC(=O)O)C(=O)N[C@@H](CC(N)=O)C(=O)N[C@@H](CC(C)C)C(=O)N[C@@H](CCC(N)=O)C(=O)N[C@@H](CC(N)=O)C(=O)N[C@@H](CS)C(=O)N[C@@H](CCCCN)C(=O)N[C@@H](CCCCN)C(=O)N[C@@H](CC(C)C)C(=O)N[C@@H](CCCNC(=N)N)C(=O)N[C@@H](CC(C)C)C(=O)N[C@@H](CC(C)C)C(=O)N[C@@H](CCC(=O)O)C(=O)N[C@@H](CC(C)C)C(=O)NCC(=O)N[C@@H](Cc1ccc(O)cc1)C(=O)N[C@@H](CC(N)=O)C(=O)N[C@@H](CCCCN)C(=O)N[C@H](C(=O)N[C@@H](CCCNC(=N)N)C(=O)N[C@@H](CCSC)C(=O)O)[C@@H](C)CC)[C@@H](C)CC)[C@@H](C)CC)[C@@H](C)CC [PfLRR1.2] (H-VKKKKIKAEIKIIENLQNCKKLRLLELGYNKIRM-OH) | not toxic
CC[C@H](C)[C@H](NC(=O)[C@H](CCCCN)NC(=O)[C@H](CCCCN)NC(=O)[C@H](CCCCN)NC(=O)[C@H](CCCCN)NC(=O)[C@@H](N)C(C)C)C(=O)N[C@@H](CCCCN)C(=O)N[C@@H](C)C(=O)N[C@@H](CCC(=O)O)C(=O)N[C@H](C(=O)N[C@@H](CCCCN)C(=O)N[C@H](C(=O)N[C@@H](CCC(=O)O)C(=O)N[C@@H](CC(N)=O)C(=O)N[C@@H](Cc1ccc(O)cc1)C(=O)N[C@@H](CCCNC(=N)N)C(=O)N[C@@H](CCCCN)C(=O)N[C@H](C(=O)N[C@H](C(=O)N[C@H](C(=O)N[C@@H](Cc1c[nH]cn1)C(=O)N[C@H](C(=O)N[C@@H](CC(C)C)C(=O)N1CCC[C@H]1C(=O)N[C@@H](CCC(N)=O)C(=O)N[C@@H](CC(C)C)C(=O)N[C@@H](CCCCN)C(=O)N[C@@H](CCC(N)=O)C(=O)N[C@@H](CC(C)C)C(=O)N[C@@H](CC(=O)O)C(=O)N[C@@H](C)C(=O)N[C@@H](CC(C)C)C(=O)O)[C@@H](C)CC)[C@@H](C)CC)[C@@H](C)CC)[C@@H](C)O)[C@@H](C)CC)[C@@H](C)CC [PfLRR1.1] (H-VKKKKIKAEIKIENYRKTIIHILPQLKQLDAL-OH) | not toxic
